Results on 66 compounds are retold here after ChEMBL document CHEMBL3045100, “Comparative molecular similarity indices analysis of some 1-substituted imidazole analogs as Candida albicans P450-demethylase inhibitors” (2013).

For this assay, the system named is Candida albicans. Briefly: Antifungal activity against Candida albicans assessed as growth inhibition. The format is functional. The settings on record: for MIC: Candida albicans.

≈ marks a conversion by molar mass, not a printed value.

As usually defined, the MIC is the least concentration at which growth counts as inhibited. `OC(Cn1ccnc1)c1ccc(Cl)cc1` (configuration not stated): the “-logMIC” value is reported as 2.4 and the MIC amounted to 250 µg/mL (≈ 1120 µM).
The like results for `O=C(Cn1ccnc1)c1ccc(Cl)cc1` were, in that order, 2 and 100 µg/mL (≈ 453 µM).
Regarding `Cc1ncc([N+](=O)[O-])n1CCOC(c1ccccc1)c1cccs1` (configuration not stated), the “-logMIC” value was determined as 2.6 and the minimum inhibitory concentration (MIC) is 400 µg/mL (≈ 1160 µM).
The like results for `Cc1nccn1CC(=O)c1ccc(Br)cc1` were, in that order, 2.48 and 300 µg/mL (≈ 1070 µM).
The like results for `COc1ccc(NC(=S)Nn2c(-c3ccc([N+](=O)[O-])cc3)cnc2S)cc1` were, in that order, 0.29 and 1.95 µg/mL (≈ 4.86 µM).
Taken in the same sequence, the figures for `O=[N+]([O-])c1ccc(-c2cnc(S)n2NC(=S)Nc2cccc3ccccc23)cc1` were 2.7 and over 500 µg/mL.
Regarding `O=C(Cn1ccnc1)c1ccc(Br)cc1`, the “-logMIC” value is on record as 2.3 and the MIC was determined as 250 µg/mL (≈ 943 µM).
Taken in the same sequence, the figures for `OC(Cn1ccnc1)c1ccc(Br)cc1` (configuration not stated) were 2.3 and 200 µg/mL (≈ 749 µM).
With `Cc1nc([N+](=O)[O-])cn1CC(CNc1ccccc1)Nc1ccccc1` (configuration not stated), the “-logMIC” value is recorded as 2.3 and the minimum inhibitory concentration (MIC) stood at 200 µg/mL (≈ 569 µM).
Taken in the same sequence, the figures for `Cc1nc([N+](=O)[O-])cn1CC(=O)CNc1ccccc1` were 2.6 and 400 µg/mL (≈ 1460 µM).
The like results for `Cc1ccc(NCC(=O)Cn2cc([N+](=O)[O-])nc2C)cc1` were, in that order, 2.6 and 400 µg/mL (≈ 1390 µM).
The like results for `COc1ccccc1NCC(=O)Cn1cc([N+](=O)[O-])nc1C` were, in that order, 2.6 and 400 µg/mL (≈ 1310 µM).
In the case of `Cc1nc([N+](=O)[O-])cn1CC(=O)CNc1cccc(Cl)c1`, the “-logMIC” value worked out at 2.6 and the MIC came to 400 µg/mL (≈ 1300 µM).
Taken in the same sequence, the figures for `Cc1ncc([N+](=O)[O-])n1CC(=O)CNc1ccc(Cl)cc1` were 2.6 and 800 µg/mL (≈ 2590 µM).
The like results for `Cc1nccn1CC(=O)Nc1cccc(O)c1` were, in that order, 2.9 and 800 µg/mL (≈ 3460 µM).
The like results for `Cc1ncc([N+](=O)[O-])n1CC(=O)Nc1cccc(O)c1` were, in that order, 2.9 and 800 µg/mL (≈ 2900 µM).
Regarding `O=C(Cn1ccnc1)Nc1cccc(O)c1`, the “-logMIC” value was found to be 2.9 and the MIC turned out to be 800 µg/mL (≈ 3680 µM).
The like results for `Cc1ncc([N+](=O)[O-])n1C(C)C(=O)Nc1cccc(O)c1` (configuration not stated) were, in that order, 2.6 and 400 µg/mL (≈ 1380 µM).
`O=C(CCn1ccnc1)Nc1cccc(O)c1`: the “-logMIC” value is listed as 2.9 and the minimum inhibitory concentration (MIC) is 800 µg/mL (≈ 3460 µM).
The like results for `Cc1nccn1CCC(=O)Nc1cccc(O)c1` were, in that order, 2.9 and 800 µg/mL (≈ 3260 µM).
The like results for `Cc1ncc([N+](=O)[O-])n1CCC(=O)Nc1cccc(O)c1` were, in that order, 2.9 and 800 µg/mL (≈ 2760 µM).
The like results for `Cc1ncc([N+](=O)[O-])n1CCOC(Cc1cccs1)c1ccccc1` (configuration not stated) were, in that order, 2.6 and 400 µg/mL (≈ 1120 µM).
On to `Cc1ncc([N+](=O)[O-])n1CCOC(c1ccccc1)c1cnccn1` (configuration not stated), for which the “-logMIC” value came out at 2.6 and the MIC turned out to be 400 µg/mL (≈ 1180 µM).
Turning to `Cc1ncc([N+](=O)[O-])n1CCOC(c1ccccc1)c1ccccc1S` (configuration not stated), the “-logMIC” value was determined as 2.6 and the MIC was 400 µg/mL (≈ 1080 µM).
In the case of `Cc1ccccc1NC(=S)Nn1ccnc1-c1ccc(Cl)cc1`, the “-logMIC” value was found to be 2.03 and the MIC worked out at 100 µg/mL (≈ 292 µM).
The like results for `Cc1ccc(NC(=S)Nn2ccnc2-c2ccc(Cl)cc2)cc1` were, in that order, 2.69 and 500 µg/mL (≈ 1460 µM).
Turning to `COc1ccccc1NC(=S)Nn1ccnc1-c1ccc(Cl)cc1`, the “-logMIC” value was found to be 1.97 and the MIC stood at 100 µg/mL (≈ 279 µM).
For `COc1ccc(NC(=S)Nn2ccnc2-c2ccc(Cl)cc2)cc1`, the “-logMIC” value worked out at 2.02 and the MIC was 100 µg/mL (≈ 279 µM).
As for `S=C(Nc1cccc2ccccc12)Nn1ccnc1-c1ccc(Cl)cc1`, the “-logMIC” value came out at 2.42 and the MIC stood at 250 µg/mL (≈ 660 µM).
Taken in the same sequence, the figures for `Cc1ccccc1NC(=S)Nn1ccnc1-c1ccc(Br)cc1` were 2.01 and 100 µg/mL (≈ 258 µM).
Taken in the same sequence, the figures for `Cc1ccc(NC(=S)Nn2ccnc2-c2ccc(Br)cc2)cc1` were 2.41 and 250 µg/mL (≈ 645 µM).
For `COc1ccccc1NC(=S)Nn1ccnc1-c1ccc(Br)cc1`, the “-logMIC” value is given as 2.4 and the MIC came to 250 µg/mL (≈ 620 µM).
The like results for `COc1ccc(NC(=S)Nn2ccnc2-c2ccc(Br)cc2)cc1` were, in that order, 2 and 100 µg/mL (≈ 248 µM).
As for `S=C(Nc1cccc2ccccc12)Nn1ccnc1-c1ccc(Br)cc1`, the “-logMIC” value is listed as 2.01 and the MIC came out at 100 µg/mL (≈ 236 µM).
Taken in the same sequence, the figures for `Cc1nc([N+](=O)[O-])cn1CCC(=O)Nc1ccccc1` were 3 and 1000 µg/mL (≈ 3650 µM).
Take `Cc1nc([N+](=O)[O-])cn1CCC(=O)Nc1ccccc1Cl`: the “-logMIC” value turned out to be 2.93 and the minimum inhibitory concentration (MIC) is 1000 µg/mL (≈ 3240 µM).
The like results for `Cc1nc([N+](=O)[O-])cn1CCC(=O)Nc1cccc(Cl)c1` were, in that order, 2.71 and 500 µg/mL (≈ 1620 µM).
Regarding `Cc1nc([N+](=O)[O-])cn1CCC(=O)Nc1ccccc1S`, the “-logMIC” value came to 2.68 and the MIC was 500 µg/mL (≈ 1630 µM).
Regarding `Cc1nc([N+](=O)[O-])cn1CCC(=O)Nc1ccccc1[N+](=O)[O-]`, the “-logMIC” value was found to be 2.95 and the MIC came to 1000 µg/mL (≈ 3130 µM).
Taken in the same sequence, the figures for `Cc1nc([N+](=O)[O-])cn1CCC(=O)Nc1c(Br)cc(Br)cc1Br` were 2.64 and 500 µg/mL (≈ 979 µM).
Turning to `Cc1nc([N+](=O)[O-])cn1CCC(=O)Nc1cccc2ccccc12`, the “-logMIC” value is recorded as 2.74 and the MIC was 500 µg/mL (≈ 1540 µM).
Take `CCCNCCn1c([N+](=O)[O-])cnc1C`: the “-logMIC” value came out at 1.68 and the MIC was determined as 50 µg/mL (≈ 236 µM).
Taken in the same sequence, the figures for `Cc1ncc([N+](=O)[O-])n1CCNC(C)C` were 1.39 and 25 µg/mL (≈ 118 µM).
Taken in the same sequence, the figures for `Cc1ncc([N+](=O)[O-])n1CCN(C(C)C)C(C)C` were 1.38 and 25 µg/mL (≈ 98.3 µM).
The like results for `Cc1ncc([N+](=O)[O-])n1CCNc1ccccc1` were, in that order, 1.7 and 50 µg/mL (≈ 203 µM).
In the case of `Cc1ncc([N+](=O)[O-])n1CCNc1ccccc1[N+](=O)[O-]`, the “-logMIC” value is 2 and the MIC came out at 100 µg/mL (≈ 343 µM).
The like results for `Cc1ncc([N+](=O)[O-])n1CCNc1ccc([N+](=O)[O-])cc1` were, in that order, 1.1 and 12.5 µg/mL (≈ 42.9 µM).
Take `Cc1ccccc1NC(=S)Nn1c(-c2ccc([N+](=O)[O-])cc2)cnc1S`: the “-logMIC” value stood at 1.5 and the MIC amounted to 31.2 µg/mL (≈ 81.1 µM).
Taken in the same sequence, the figures for `Cc1ccc(NC(=S)Nn2c(-c3ccc([N+](=O)[O-])cc3)cnc2S)cc1` were 0.6 and 3.91 µg/mL (≈ 10.1 µM).
Taken in the same sequence, the figures for `Cc1ncc([N+](=O)[O-])n1CC(O)CNCC(C)C` (configuration not stated) were 1.99 and 100 µg/mL (≈ 390 µM).
Taken in the same sequence, the figures for `CCCCNCC(O)Cn1c([N+](=O)[O-])cnc1C` (configuration not stated) were 1.99 and 100 µg/mL (≈ 390 µM).
Turning to `Cc1ncc([N+](=O)[O-])n1CC(O)COc1ccccc1` (configuration not stated), the “-logMIC” value came out at 2.06 and the minimal inhibitory concentration (MIC) was found to be 100 µg/mL (≈ 361 µM).
For the compound `Cc1ccccc1OCC(O)Cn1c([N+](=O)[O-])cnc1C` (configuration not stated), the “-logMIC” value was 2 and the minimum inhibitory concentration (MIC) worked out at 100 µg/mL (≈ 343 µM).
The like results for `Cc1ncc([N+](=O)[O-])n1CC(O)COc1cccc2ccccc12` (configuration not stated) were, in that order, 2.06 and 100 µg/mL (≈ 305 µM).
Consider `Cc1ncc([N+](=O)[O-])n1CC(O)COc1ccc2ccccc2c1` (configuration not stated), for which the “-logMIC” value is listed as 2.69 and the minimal inhibitory concentration (MIC) is 500 µg/mL (≈ 1530 µM).
Taken in the same sequence, the figures for `Cc1ncc([N+](=O)[O-])n1CN(C(C)C)C(C)C` were 2 and 100 µg/mL (≈ 416 µM).
Turning to `Cc1ncc([N+](=O)[O-])n1CNc1ccccc1`, the “-logMIC” value is on record as 1.94 and the minimal inhibitory concentration (MIC) worked out at 100 µg/mL (≈ 431 µM).
With `Cc1ccc(NCn2c([N+](=O)[O-])cnc2C)cc1`, the “-logMIC” value amounted to 1.98 and the minimum inhibitory concentration (MIC) is 100 µg/mL (≈ 406 µM).
The like results for `Cc1ncc([N+](=O)[O-])n1CNc1cccc2ccccc12` were, in that order, 2 and 100 µg/mL (≈ 354 µM).
On to `Cc1nccn1CC(=O)c1ccc(Cl)cc1`, for which the “-logMIC” value is reported as 2.26 and the minimum inhibitory concentration (MIC) came to 200 µg/mL (≈ 852 µM).
Taken in the same sequence, the figures for `Cc1nccn1CC(=O)c1ccc(-c2ccccc2)cc1` were 2.48 and 300 µg/mL (≈ 1090 µM).
The like results for `Cc1nccn1CC(O)c1ccc(Cl)cc1` (configuration not stated) were, in that order, 2.31 and 200 µg/mL (≈ 845 µM).
For `Cc1nccn1CC(O)c1ccc(Br)cc1` (configuration not stated), the “-logMIC” value worked out at 2.35 and the MIC is 200 µg/mL (≈ 711 µM).
Taken in the same sequence, the figures for `Cc1nccn1CC(O)c1ccc([N+](=O)[O-])cc1` (configuration not stated) were 2.39 and 300 µg/mL (≈ 1210 µM).
For the compound `Cc1nccn1CC(O)c1ccc(-c2ccccc2)cc1` (configuration not stated), the “-logMIC” value came to 2.33 and the MIC turned out to be 200 µg/mL (≈ 719 µM).
On to `Cc1nccn1CC(=O)c1ccc([N+](=O)[O-])cc1`, for which the “-logMIC” value was found to be 2.9 and the MIC is 200 µg/mL (≈ 816 µM).
